Test results from publication PMC10740580, “Benzothiazole-Phthalimide Hybrids as Anti-Breast Cancer and Antimicrobial Agents” (Antibiotics, 2023).
≈ marks a conversion by molar mass, not a printed value.

Legend:
[1] = test system: Klebsiella pneumoniae 13883; assay: Broth microdilution, K. pneumoniae ATCC 13883; format: cell-based; details: 24 h, 37 °C, read-out: MIC K.p. 13883
Source text: (§1) Compounds 3a–h were examined in accordance with the Clinical Laboratory Standards Institute (CLSI) recommendations, by means of the broth microdilution method, against gram-positive bacteria (Staphylococcus aureus 25923, Staphylococcus aureus 29213, Staphylococcus aureus 43300, Enterococcus faecalis 29212) and gram-negative bacteria (Escherichia coli 25922, Klebsiella pneumoniae 13883, Pseudomonas aeruginosa 27853) belonging to the ATCC collection, using levofloxacin as a reference drug. Table 3 lists the results, expressed as MIC (µg/mL). […] The lack of activity observed for compound 3d could be conceivably due to its poor solubility in the culture medium containing the inoculum.
Following the recommendations of the CLSI (Clinical and Laboratory Standards Institute, 2012), the broth microdilution method was used to determine the in vitro minimum inhibitory concentrations (MICs, µg/mL).. The concentration of the investigated compounds was set to its highest value to create stock solutions. Then, the stock solutions were diluted 1:10 with Cation-Adjusted Mueller Hinton Broth (Oxoid, Milan, Italy). After that, a series of concentrations from 512 µg/mL to […] were obtained in the wells by performing two-fold serial dilutions in the appropriate test medium. The diluent used to create the stock solution was 100% DMSO. We used the following bacterial strains from the ATCC collection that were available as freeze-dried discs: gram-positive strains such as S. aureus ATCC 25923, 29213, and 43300, and E. faecalis ATCC 29212, and gram-negative ones such as E. coli ATCC 25922, K. pneuomoniae ATCC 13883, and P. aeruginosa ATCC 27853. To preserve the purity of cultures and to allow their reproducibility, cryovials of all microbial strains were set up in the medium and stored at −80 °C. Mueller Hinton Broth (MHB) was used to prepare pre-cultures of each bacterial strain, which were then incubated for 3–5 h at 37 °C. In accordance with CLSI procedure M7-A9, the turbidity of the bacterial cell suspension was calibrated to 0.5 McFarland Standard using a spectrophotometric approach (OD625 nm 0.08–0.10). The standardized suspension was then further diluted (1:100) with MHB to reach 1–2 × 10^6 CFU/mL. A 200 µL aliquot of the final inoculum was inserted into each well. As a control for growth, several wells containing only inoculated broth were prepared. The plates were incubated at 37 °C for 24 h, and the MIC values were calculated as the lowest concentration of compounds at which there was no optically detectable bacteria growth. Each experiment was carried out in duplicate and repeated twice to determine the MICs. Levofloxacin served as the study’s standard reference antibiotic. Additionally, the antibacterial activity of DMSO alone (used as a diluent for the investigated compounds) was examined; therefore, volumes of this solvent with a concentration of less than 5% were utilized throughout the experimentation.

angiogenesis = details: previous study, reduced side effects compared to thalidomide; cited from earlier work
gram-positive bacteria = assay: Broth microdilution, gram-positive bacteria; format: cell-based; details: read-out: MIC against gram-positive bacteria
Source text: as §1
Following the recommendations of the CLSI (Clinical and Laboratory Standards Institute, 2012), the broth microdilution method was used to determine the in vitro minimum inhibitory concentrations (MICs, µg/mL).. The concentration of the investigated compounds was set to its highest value to create stock solutions. Then, the stock solutions were diluted 1:10 with Cation-Adjusted Mueller Hinton Broth (Oxoid, Milan, Italy). After that, a series of concentrations from 512 µg/mL to […] were obtained in the wells by performing two-fold serial dilutions in the appropriate test medium. The diluent used to create the stock solution was 100% DMSO. […]

gram-negative bacteria = assay: Broth microdilution, gram-negative bacteria; format: cell-based; details: read-out: MIC against gram-negative bacteria
Source text: as §1
Following the recommendations of the CLSI (Clinical and Laboratory Standards Institute, 2012), the broth microdilution method was used to determine the in vitro minimum inhibitory concentrations (MICs, µg/mL).. The concentration of the investigated compounds was set to its highest value to create stock solutions. Then, the stock solutions were diluted 1:10 with Cation-Adjusted Mueller Hinton Broth (Oxoid, Milan, Italy). After that, a series of concentrations from 512 µg/mL to […] were obtained in the wells by performing two-fold serial dilutions in the appropriate test medium. The diluent used to create the stock solution was 100% DMSO. We used the following bacterial strains from the ATCC collection that were available as freeze-dried discs: gram-positive strains such as S. aureus ATCC 25923, 29213, and 43300, and E. faecalis ATCC 29212, and gram-negative ones such as E. coli ATCC 25922, K. pneuomoniae ATCC 13883, and P. aeruginosa ATCC 27853. To preserve the purity of cultures and to allow their reproducibility, cryovials of all microbial strains were set up in the medium and stored at −80 °C. Mueller Hinton Broth (MHB) was used to prepare pre-cultures of each bacterial strain, which were then incubated for 3–5 h at 37 °C. […]

MDA-MB-231 cells = assay: Wound-healing assay (cell migration); format: cell-based, human; details: 3h at its IC50 value
Protocol: Thus, its ability to prevent the migration of MDA-MB-231 was tested by means of the wound-healing assay. Confluent monolayers of cells were cultivated and plated before being scraped to create a wound (see Experimental Section) and treated with compound 3h at concentrations corresponding to its IC50 value (Table 2) for 24 and 48 h, or DMSO (Ctrl). These distinct endpoint times were experimentally defined since MDA-MB-231 cells have a high growth rate and frequently give rise to metastases in vivo. In fact, 48 h were sufficient for the wound closure in the control cells, treated using only the vehicle.
Confluent monolayers of MDA-MB-231 cells formed after the cells were plated on twelve-well plates and grown in full media. […] A cell imager microscope (JuLi Smart fluorescence, NanoEnTek Inc., Seoul, Republic of Korea) was used to take the pictures. The percentage of wound closure used to express the cell migration toward the wounds was: wound closure%=[(At0−At∆h)÷[…]]×100% for which At0 is the area of wound measured immediately after scratching and At∆h is the area of wound measured 48 h after scratching. […] The collected images were analyzed with the JuLI^TM smart fluorescent cell viewer (NanoEnTek Inc., Seoul, Republic of Korea).
Figure 3 Wound-healing assay conducted on MDA-MB-231 cells treated with compound 3h or vehicle (Ctrl, DMSO). […] (B): quantitative analysis of wound closure. […]

Structure (SMILES)	MIC [1]	antiangiogenic activity (angiogenesis)	MIC (gram-positive bacteria)	MIC (gram-negative bacteria)	prevention of total wound closure, 24 h (MDA-MB-231 cells; 24 h)	prevention of total wound closure, 48 h (MDA-MB-231 cells; 48 h)
Cc1ccc2nc(N3C(=O)c4ccccc4C3=O)sc2c1 [3d, 2-[6-Methyl-1,3-benzothiazol-2-yl]-1H-isoindole-1,3(2H)-dione]	> 512 µg/mL	performed as antiangiogenic agents	–	–	–	–
COc1cc2nc(N3C(=O)c4ccccc4C3=O)sc2cc1OC [3f, 2-[5,6-Dimethoxy-1,3-benzothiazol-2-yl]-1H-isoindole-1,3(2H)-dione]	64 µg/mL (≈ 188 µM)	–	32 to 64 µg/mL (≈ 94 to 188 µM)	64 µg/mL (≈ 188 µM)	–	–
O=C1c2ccccc2C(=O)N1c1nc2ccc(C(F)(F)F)cc2s1 [3c, 2-[6-Trifluoromethyl-1,3-benzothiazol-2-yl]-1H-isoindole-1,3(2H)-dione]	128 µg/mL (≈ 367 µM)	–	–	–	–	–
O=C1c2ccccc2C(=O)N1c1nc2ccccc2s1 [3a, 2-(1,3-benzothiazol-2-yl)-1H-isoindole-1,3(2H)-dione]	128 µg/mL (≈ 457 µM)	performed as antiangiogenic agents	–	–	–	–
O=C1c2ccccc2C(=O)N1c1nc2ccc(Oc3ccccc3)cc2s1 [3h, 2-[6-Phenoxy-1,3-benzothiazol-2-yl]-1H-isoindole-1,3(2H)-dione]	32 µg/mL (≈ 85.9 µM)	–	–	32 µg/mL (≈ 85.9 µM)	~ 23%	~ 26%
O=C1c2ccccc2C(=O)N1c1nc2ccc(F)cc2s1 [3b, 2-(6-Fluoro-1,3-benzothiazol-2-yl)-1H-isoindole-1,3(2H)-dione]	128 µg/mL (≈ 429 µM)	–	–	–	–	–
O=C1c2ccccc2C(=O)N1c1nc2ccc(O)cc2s1 [3g, 2-[6-Hydroxy-1,3-benzothiazol-2-yl]-1H-isoindole-1,3(2H)-dione]	64 µg/mL (≈ 216 µM)	–	32 to 64 µg/mL (≈ 108 to 216 µM)	64 µg/mL (≈ 216 µM)	–	–
COc1ccc2nc(N3C(=O)c4ccccc4C3=O)sc2c1 [3e, 2-[6-Methoxy-1,3-benzothiazol-2-yl]-1H-isoindole-1,3(2H)-dione]	64 µg/mL (≈ 206 µM)	–	–	–	–	–
